{
  "source": "patent US7304174B2",
  "about": "“CaSR antagonist” (Japan Tobacco Inc., priority 2003, dated 2007)",
  "molecular_target": "T1, human calcium receptor (Homo sapiens, UniProt P41180)",
  "T1 construct": "expressed in transfected cells; host or cells: cell strain derived from rat adrenal, co-transformed with luciferase cDNA",
  "T1 sequence (P41180 20-1078)": "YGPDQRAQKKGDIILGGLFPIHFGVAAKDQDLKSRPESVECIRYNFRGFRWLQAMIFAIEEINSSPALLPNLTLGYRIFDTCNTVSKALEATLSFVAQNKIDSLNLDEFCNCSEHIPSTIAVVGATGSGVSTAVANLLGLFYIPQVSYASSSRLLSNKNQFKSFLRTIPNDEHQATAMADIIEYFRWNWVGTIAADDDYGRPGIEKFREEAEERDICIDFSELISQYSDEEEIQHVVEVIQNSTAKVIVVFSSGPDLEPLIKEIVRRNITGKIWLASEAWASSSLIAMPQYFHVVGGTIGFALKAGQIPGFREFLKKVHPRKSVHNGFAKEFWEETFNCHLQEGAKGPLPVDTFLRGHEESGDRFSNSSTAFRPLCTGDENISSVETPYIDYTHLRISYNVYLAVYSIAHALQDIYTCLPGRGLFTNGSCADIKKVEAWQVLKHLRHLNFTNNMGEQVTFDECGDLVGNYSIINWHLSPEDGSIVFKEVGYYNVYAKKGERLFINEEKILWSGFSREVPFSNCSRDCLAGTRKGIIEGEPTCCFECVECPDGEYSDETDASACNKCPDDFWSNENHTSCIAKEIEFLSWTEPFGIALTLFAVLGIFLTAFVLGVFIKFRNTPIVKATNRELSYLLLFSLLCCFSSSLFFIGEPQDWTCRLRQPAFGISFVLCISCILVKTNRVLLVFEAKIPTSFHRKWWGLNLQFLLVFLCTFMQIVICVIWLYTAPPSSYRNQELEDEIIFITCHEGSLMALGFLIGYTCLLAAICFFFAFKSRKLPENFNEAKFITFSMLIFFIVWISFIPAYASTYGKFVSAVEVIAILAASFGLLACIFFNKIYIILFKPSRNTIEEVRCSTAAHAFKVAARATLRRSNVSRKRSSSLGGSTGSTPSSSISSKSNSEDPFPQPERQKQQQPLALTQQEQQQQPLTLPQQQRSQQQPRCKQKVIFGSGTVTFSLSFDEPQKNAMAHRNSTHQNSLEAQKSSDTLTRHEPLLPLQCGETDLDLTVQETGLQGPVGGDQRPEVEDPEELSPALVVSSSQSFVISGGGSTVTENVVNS",
  "test": "Evaluation of antagonistic action on calcium receptor using reporter gene (luciferase)",
  "format": "cell-based",
  "details": "transformed rat adrenal derived cells, 5 mM calcium chloride, culture 4 hrs, luciferase activity; read-out: Reporter gene assay (IC50, concentration showing 50% inhibitory rate)",
  "in_short": "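Rat adrenal-derived cells transfected with luciferase and human calcium receptor cDNA, in F12 with 0.5% dialyzed horse serum and 0.25% dialyzed fetal bovine serum. Luciferase luminescence gave % inhibition vs control and blank; IC50 at 50% inhibition.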",
  "data": [
    {"compound": "Cc1ccc(CC(C)(C)NC[C@@H](O)CO[C@H](C)c2ccccc2-c2ccc(C(=O)O)c(C)c2)cc1F", "note": "[Example 1-1, 2′-[(1R)-[(2R)-3-[[1-(3-Fluoro-4-methylphenyl)-2-methylpropan-2-yl]amino]-2-hydroxypropoxy]ethyl]-3-methylbiphenyl-4-carboxylic acid]", "values": [
      {"measurement": "IC50", "value": 24, "unit": "nM"}
    ]}
  ]
}
